From patent US20260317356A1, “SMALL MOLECULE MODULATORS OF OGG1” (AZKARRA THERAPEUTICS, INC., priority 2023, published 2026)

How the values were obtained:
hOGG1 = hOGG1 (Homo sapiens, UniProt O15527); assay: Surface Plasma Resonance with hOGG1 to measure compound affinity (OGG1 SPR Kd); format: binding; parameters: Protein His-hOGG1 (12-323) was prepared; conditions: Biacore T-200, immobilized his-tagged OGG1; pH 7.4; 2% DMSO; single-cycle kinetics
Procedure: Surface Plasma Resonance with hOGG1 to Measure Compound Affinity (OGG1 SPR Kd); All the SPR studies were performed on a Biacore T-200 instrument (Cytiva life sciences) using series S NTA sensor chip (cat #BR-1005-32, Cytiva life sciences). Recombinant his-tagged OGG1 (mol. wt. 36003; ChemPartner, Shanghai, China) was immobilized on NTA sensor chip via Ni^2+/NTA chelation using NTA reagent kit (Cytiva life sciences; cat #289950) as per manufacturer's recommended protocol. The running buffer during immobilization contained HEPES (20 mM, pH 7.4), 150 mM NaCl, 0.5 mM TCEP (tris(2-carboxyethyl)phosphine), and 0.005% Tween-20. NTA sensor chip (experimental cell) was first conditioned by injecting regeneration solution (350 mM EDTA, flow rate 30 μL/min, 2 injections 60 each). Additional wash with 50 mM NaOH was used whenever the chip was regenerated (flow rate 30 μL/min, 1 injection of 60 s). The sensor chip was then activated with 0.5 mM NiCl2 (flow rate 10 μL/min, 2 injection of 60 s, leading to a baseline increase of ~40 RU), and the excess Ni^2+ was removed using immobilization buffer containing 3 mM EDTA (flow rate 10 μL/min, 1 injection of 60 s). Finally, OGG1 (diluted to 6.2 μg/mL in running buffer) was injected on the activated sensor chip at a flow rate of 10 μL/min until immobilization level reached ~6000 RU. Any loosely bound protein was removed by passing the immobilization buffer overnight at 20 μL/min. At this point, the drift in baseline was ~0.01 RU/s and the final immobilization level was ~2500 RU. Reference cell was left untreated. SPR binding experiments were performed using binding buffer (20 mM HEPES (pH 7.4), 150 mM NaCl, 0.5 mM TCEP, 0.005% Tween-20, and 2% DMSO) at a flow rate of 30 μL/min. Single-cycle kinetics approach was used for binding analysis which consisted of sequential injections of increasing concentrations of test compound (a 3-fold serial dilution with 5 concentrations; highest 750 or 1500 nM; with final DMSO concentration at 2%) over the immobilized protein without regeneration step between each sample injection. Each injection was 45 seconds long (contact time), followed by a final dissociation of 600 sec. The Biacore T-200 Evaluation software 3.1 (GE Healthcare) was used to determine kinetic parameters from SPR data. All the reported sensograms were reference subtracted and corrected for refractive index contributions from solvent using 8-point solvent correction (1.4 to 2.8% DMSO in binding buffer). Data were fit to both steady state and 1:1 kinetic model to obtain Kon, Koff and binding affinity (Kd).

nLucOGG1 in HeLa cells = biological target: T1, nLucOGG1 in HeLa cells (Homo sapiens, UniProt O15527); assay: Cellular Thermal Shift Assay to measure compound affinity for nLucOGG1 in HeLa cells (CETSA DTm); format: cell-based; conditions: 10 μM compound, 37° C. 60 min, Tm vs DMSO control
T1 construct: thermal shift read by NanoGlo luminescence
T1 sequence (O15527 whole entry): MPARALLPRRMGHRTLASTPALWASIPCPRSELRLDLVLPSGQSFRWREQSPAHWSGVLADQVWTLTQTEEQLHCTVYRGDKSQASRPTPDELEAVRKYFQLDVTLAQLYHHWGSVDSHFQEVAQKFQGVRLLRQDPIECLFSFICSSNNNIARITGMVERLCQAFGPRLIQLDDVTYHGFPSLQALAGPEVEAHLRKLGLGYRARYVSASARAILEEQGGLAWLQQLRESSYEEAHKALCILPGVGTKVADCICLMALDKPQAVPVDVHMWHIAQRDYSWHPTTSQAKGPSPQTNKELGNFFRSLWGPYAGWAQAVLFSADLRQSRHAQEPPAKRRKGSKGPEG
Procedure: Biological Example 2: Cellular Thermal Shift Assay to Measure Compound Affinity for ^nLucOGG1 in HeLa Cells (CETSA DTm)
Cell Culture and Transfection of Hela Cells with ^nLucOGG1: For all tests, Hela cells were maintained in growth medium, Dulbecco's Minimum Eagle Medium (Multicell: Cat #319-005-CL) supplemented with 10% heat-inactivated fetal bovine serum (Gibco: Cat #12484-028) at 37° C. and 5% CO2 in a humidified tissue culture incubator. Transient transfections were performed using the Lonza 4-D Nucleofector X unit according to the manufacturer's protocol (Lonza Cat #V4XC-1024). Briefly, for each transfection, 1.2×10^6 cells were centrifuged at 1000 RPM for 5 minutes at room temperature before being diluted in 100 μL SE solution containing 18% v/v supplement and 1.5 μg pNF1-N-empty or pNF1-N-OGG1a vector. The total volume was transferred to a 100 μL nucleofection cuvette prior to transfer to the apparatus where HeLa cell nucleofection protocol CN-114 was executed. Following nucleofection, 500 μL complete media was added to the cells in the cuvette before transferring to a 6-well dish containing 1.5 mL of complete media. Cells were left to incubate for 48 hours before performing all cellular thermal shift experiments.
Cellular Thermal Shift Assays for Target Engagement (CETSA): Forty-eight hours following nucleofection, cells were washed once with DPBS−/−(Multicell: Cat #311-425-CL) and lifted with 0.25% Trypsin-EDTA (Multicell: Cat #325-043-CL) prior to dilution in growth medium and centrifugation at 1000 RPM for 5 minutes at room temperature. The resulting cell pellet was then resuspended in growth medium, cells were counted and the volume adjusted to 500 k cells/mL (2×).
For delta Tm determination, OGG1 inhibitor compounds were dissolved in DMSO to a final working concentration of 20 mM. Working solutions were then diluted in complete media to 20 μM or 0.1% DMSO for the vehicle control (2×). 2×OGG1 inhibitor compound solutions or 0.1% DMSO control were then pre-dispensed into MicroAmp Optical 96-well PCR reaction plates (Applied Biosystems: Cat #4346906) at 50 μL/well. Next, 50 μL or 25 k cells/well from the 2× cell suspension was added to the pre-loaded PCR plates. All plates were prepared as duplicates, covered with adhesive plate sealers (Perkin Elmer: Cat #6050185) and left to incubate at 37° C. for 60 minutes. During incubation, sufficient NanoGlo luciferase assay reagents (Promega: Cat #N1120) were left to equilibrate to room temperature in the dark. Immediately before heating the plates, the NanoGlo substrate was mixed with the NanoGlo buffer at a 1:50 ratio. The thermal cycler (Veriti 96-Well Thermal Cycler, Thermo Fisher Scientific) was allowed to reach the designated temperature prior to placement of the PCR plate into the heating block. For Tm determination experiments, duplicate plates containing a fixed concentration of test compound (10 μM final) as well as vehicle control were prepared to perform a 12-point temperature gradient spanning 37-70° C. for 3 minutes. Therefore, two thermal cycler protocols were set up covering two 6-step temperature gradients ranging from 37-52° C. and 52-70° C. Plates were then allowed to cool at room temperature for 5 minutes after the heat treatment followed by transfer of 75 μL of the reaction into a 96-well white polystyrene microplate (Corning: Cat #CLS3903) and addition of 75 μL of the prepared NanoGlo mixture. Microplates were then left to shake in the dark for 5 minutes before total luminescence was measured on a SpectraMax IX3 plate reader. The luminescence value obtained at each temperature was normalized to the luminescence obtained at 37° C. and the ratio obtained was plotted against the temperature. A Boltzman Sigmoidal non-linear regression was applied to the resulting data to determine Tm values and the difference between the Tm value for a given OGG1 inhibitor relative to the DMSO vehicle control was the delta Tm.

Sequence of hOGG1 (O15527 12-323): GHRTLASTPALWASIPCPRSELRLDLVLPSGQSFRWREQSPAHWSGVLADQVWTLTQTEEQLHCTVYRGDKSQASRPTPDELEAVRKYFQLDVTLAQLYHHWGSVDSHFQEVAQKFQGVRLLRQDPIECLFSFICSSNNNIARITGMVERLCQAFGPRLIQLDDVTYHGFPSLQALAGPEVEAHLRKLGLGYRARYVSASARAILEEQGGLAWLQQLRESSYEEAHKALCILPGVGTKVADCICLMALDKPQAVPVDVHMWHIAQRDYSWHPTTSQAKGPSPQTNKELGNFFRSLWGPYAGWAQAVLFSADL

Compound	Kd (hOGG1)	ΔTm at 10 µM (nLucOGG1 in HeLa cells)
COc1ccc(NC(=O)[C@H]2CC[C@@H](N3Cc4c(C)cc(NCCN(C)C)cc4C3=O)CC2)cc1Cl [Example 260, (1s,4s)-N-(3-Chloro-4-methoxyphenyl)-4-(6-(2-(dimethylamino)ethylamino)-4-methyl-1-oxoisoindolin-2-yl)cyclohexanecarboxamide]	0.01 to 0.1 µM	> 10 °C
COc1cc(NC(=O)[C@H]2CC[C@@H](N3Cc4c(C)ccc(OCC5CNC5)c4NC3=O)CC2)ccc1C [Example 44, (1s,4s)-4-(8-(Azetidin-3-ylmethoxy)-5-methyl-2-oxo-1,2-dihydroquinazolin-3(4H)-yl)-N-(3-methoxy-4-methylphenyl)cyclohexanecarboxamide]	0.01 to 0.1 µM	8 to 10 °C
COc1cc(NC(=O)[C@]2(C)CC[C@H](N3Cc4c(C)cccc4C3=O)CC2)ccc1C [Example 277, (1s,4s)-N-(3-methoxy-4-methylphenyl)-1-methyl-4-(4-methyl-1-oxoisoindolin-2-yl)cyclohexane-1-carboxamide]	0.01 to 0.1 µM	8 to 10 °C
COc1ccc(NC(=O)[C@H]2CC[C@@H](N3Cc4c(C)ccc(OC)c4NC3=O)CC2)cc1C#N [Example 2, (1s,4s)-N-(3-Cyano-4-methoxyphenyl)-4-(8-methoxy-5-methyl-2-oxo-1,2-dihydroquinazolin-3(4H)-yl)cyclohexanecarboxamide]	0.01 to 0.1 µM	6 to 8 °C
COc1cc(NC(=O)[C@H]2CC[C@@H](N3Cc4c(C)cc(N5CC6(COC6)C5)cc4NC3=O)CC2)ccc1C [Example 30, (1s,4s)-N-(3-Methoxy-4-methylphenyl)-4-(5-methyl-2-oxo-7-(2-oxa-6-azaspiro[3.3]heptan-6-yl)-1,2-dihydroquinazolin-3(4H)-yl)cyclohexanecarboxamide]	0.1 to 1 µM	8 to 10 °C
COc1ccc(NC(=O)[C@H]2CC[C@@H](N3Cc4c(C)ccnc4NC3=O)CC2)cc1 [Example 15, (1s,4s)-N-(4-methoxyphenyl)-4-(5-methyl-2-oxo-1,2-dihydropyrido[2,3-d]pyrimidin-3(4H)-yl)cyclohexanecarboxamide]	0.01 to 0.1 µM	6 to 8 °C
COc1ccc(NC(=O)[C@H]2CC[C@@H](N3Cc4c(C)ccnc4NC3=O)CC2)cc1Cl [Example 14, (1s,4s)-N-(3-Chloro-4-methoxyphenyl)-4-(5-methyl-2-oxo-1,2-dihydropyrido[2,3-d]pyrimidin-3(4H)-yl)cyclohexanecarboxamide]	0.01 to 0.1 µM	6 to 8 °C
COc1cc(NC(=O)[C@H]2CC[C@@H](N3Cc4c(C)cc(-c5nnco5)cc4NC3=O)CC2)ccc1C [Example 92, (1s,4s)-N-(3-methoxy-4-methylphenyl)-4-(5-methyl-7-(1,3,4-oxadiazol-2-yl)-2-oxo-1,2-dihydroquinazolin-3(4H)-yl)cyclohexanecarboxamide]	0.01 to 0.1 µM	8 to 10 °C
COc1ccc(NC(=O)[C@]2(C)CC[C@H](N3Cc4c(C)cccc4NC3=O)CC2)cc1Cl (single isomer, unassigned) [Example 103, (1s,4s)-N-(3-chloro-4-methoxyphenyl)-1-methyl-4-(5-methyl-2-oxo-1,2-dihydroquinazolin-3(4H)-yl)cyclohexanecarboxamide]	0.01 to 0.1 µM	8 to 10 °C
COc1ccc(NC(=O)[C@H]2CC[C@@H](N3Cc4c(C)cc(NCCN(C)C)cc4C3=O)CC2)cc1C [Example 256, (1s,4s)-4-(6-(2-(Dimethylamino)ethylamino)-4-methyl-1-oxoisoindolin-2-yl)-N-(4-methoxy-3-methylphenyl)cyclohexanecarboxamide]	≤ 0.01 µM	> 10 °C
COc1cc(NC(=O)[C@H]2CC[C@@H](N3Cc4c(C)ccc(OC5CNC5)c4NC3=O)CC2)ccc1C [Example 45]	0.01 to 0.1 µM	8 to 10 °C
COc1ccc(NC(=O)[C@H]2CC[C@@H](N3Cc4c(C)ccc(OC)c4NC3=O)CC2)cc1C [Example 4, (1s,4s)-N-(3-Methyl-4-methoxyphenyl)-4-(8-methoxy-5-methyl-2-oxo-1,2-dihydroquinazolin-3(4H)-yl)cyclohexanecarboxamide]	0.01 to 0.1 µM	6 to 8 °C
COc1ccc(NC(=O)[C@H]2CC[C@@H](N3Cc4c(C)cccc4C3=O)CC2)cc1C [Example 227, (1s,4s)-N-(4-Methoxy-3-methylphenyl)-4-(4-methyl-1-oxoisoindolin-2-yl)cyclohexanecarboxamide]	0.01 to 0.1 µM	6 to 8 °C
COc1ccc(NC(=O)[C@H]2CC[C@@H](N3Cc4c(C)ccc(OC)c4NC3=O)CC2)cc1Cl [Example 3, (1s,4s)-N-(3-Chloro-4-methoxyphenyl)-4-(8-methoxy-5-methyl-2-oxo-1,2-dihydroquinazolin-3(4H)-yl)cyclohexanecarboxamide]	0.01 to 0.1 µM	6 to 8 °C
COc1cc(NC(=O)[C@H]2CC[C@@H](N3Cc4c(C)ccc(OC)c4NC3=O)CC2)ccc1C [Example 47, (1s,4s)-N-(3-Methoxy-4-methylphenyl)-4-(8-methoxy-5-methyl-2-oxo-1,2-dihydroquinazolin-3(4H)-yl)cyclohexanecarboxamide]	0.01 to 0.1 µM	6 to 8 °C
COc1ccc(NC(=O)[C@H]2CC[C@@H](N3Cc4c(C)cccc4C3=O)CC2)cc1C#N [Example 239, (1s,4s)-N-(3-Cyano-4-methoxyphenyl)-4-(4-methyl-1-oxoisoindolin-2-yl)cyclohexanecarboxamide]	0.01 to 0.1 µM	6 to 8 °C
